Assay in all cases: SILAC proteomics / in-gel fluorescence, competition of probe 13-t labeling by 3a
The target in test [1] is T1, proteins of HEK293T cells transiently overexpressing caspase-6 (Homo sapiens, UniProt O00567).
T1 sequence (O00567 1-594): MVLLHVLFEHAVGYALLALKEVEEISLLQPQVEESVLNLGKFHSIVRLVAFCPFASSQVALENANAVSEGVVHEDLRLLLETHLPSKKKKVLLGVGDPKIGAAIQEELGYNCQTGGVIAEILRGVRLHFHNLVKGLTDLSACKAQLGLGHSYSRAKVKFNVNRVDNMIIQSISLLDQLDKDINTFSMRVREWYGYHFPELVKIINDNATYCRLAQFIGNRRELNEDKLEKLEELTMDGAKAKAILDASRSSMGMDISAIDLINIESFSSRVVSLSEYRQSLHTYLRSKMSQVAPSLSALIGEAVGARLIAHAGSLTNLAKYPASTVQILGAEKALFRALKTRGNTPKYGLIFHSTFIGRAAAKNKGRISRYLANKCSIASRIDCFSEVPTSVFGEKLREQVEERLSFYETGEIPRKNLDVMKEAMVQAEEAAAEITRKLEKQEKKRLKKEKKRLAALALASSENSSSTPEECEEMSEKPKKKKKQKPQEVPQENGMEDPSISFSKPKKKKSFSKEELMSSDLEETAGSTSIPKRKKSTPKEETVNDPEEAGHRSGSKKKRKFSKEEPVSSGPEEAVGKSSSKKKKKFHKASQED
Experimental: (§1) Cells were lysed, and heavy and light SILAC lysates were combined in a 1:1 ratio and subjected to CuAAC reaction with azido-biotin to biotinylate probe-labeled proteins for subsequent capture on streptavidin-coated beads. Bead-bound proteins were split for analysis by in-gel fluorescence and tryptic digestion on-bead for LC–MS/MS analysis.
(§2) SILAC labeling and alkyne probe treatment: HEK293T cells were seeded into 8x 15 cm plates at
(§3) a density of 500,000 cells/plate. 4 of these plates were grown in light SILAC DMEM and 4 were
(§4) grown in heavy SILAC DMEM all containing 10% FBS and 4.5g/L glucose. The next day, all 8
(§5) plates were transfected with a pCMV6-Entry plasmid coding for caspase-6-myc-DDK lacking the
(§6) prodomain. After 24 hours, media was replaced with fresh SILAC growth media containing 4.5 g/L
(§7) glucose and 3% FBS. 24 hours later the plates were treated with probe and inhibitor for 1 hours as
(§8) follows: 2 of the light plates were treated with vehicle, 2 light plates and 2 heavy plates treated with
(§9) for 60 minutes. After treatment, media was removed, and cells were washed with 15 mL PBS for 5
(§10) minutes. Cells were then harvested by scraping in cold PBS and lysed in the presence of Roche
(§11) complete protease inhibitors. Lysates were clarified by centrifugation at 10,000xg for 10 minutes and
(§12) the protein in the supernatant was quantified by BCA assay.
(§13) Proteomics assay: 1 mg of each lysate was diluted to 2mg/ml in PBS with Roche complete protease
(§14) inhibitors. To this was added 0.1 mM biotin-azide, 1 mM tris(2-carboxyethyl)phosphine (TCEP), 0.1
(§15) mM Tris((1-benzyl-4-triazolyl)methyl)amine (TBTA) ligand, and 1 mM CuSO4 in a final volume of
(§16) 0.5 mL. The reaction was incubated at room temperature for 1 hour and was vortexed every 15
(§17) minutes. After 1 hour, proteins are precipitated and are pelleted by centrifuging at 16,000xg for 4
(§18) min at 4 °C. The supernatants were discarded, and the pellets were solubilized with 0.5 mL cold
(§19) The cold methanol wash was then repeated, and the washed
(§20) pellets were resuspended in 1 mL of 1.2% SDS and sonicated until clear. The samples were heat
(§21) denatured at 80-90 °C for 5 minutes and any insoluble particles were removed by centrifugation at
(§22) 6,500xg for 5 minutes. The 1 mL supernatant was transferred to a 15 mL conical tubes containing 5
(§23) mL of PBS and 150 µL of washed neutravidin beads were added. The samples were incubated for 2
(§24) hours at 4 °C while rotating, at which point the samples were warmed to resolubilize any precipitated
(§25) SDS. The beads were pelleted by centrifugation at 1400xg for 3 min and washed for 10 minutes with
(§26) the following solutions: 2x 1% NP-40, 2x PBS + 1 M NaCl, and 2x 50 mM ammonium bicarbonate
(§27) (ABC) + 2 M urea. The beads were then transferred to a 1.5 mL microcentrifuge tube using 2x250
(§28) µL 100 mM Tris pH 8.0 + 4 M Guanidium hydrochloride (final volume 500 µL).

In test [2] the target is T2, proteins of HEK293T cells transiently overexpressing caspase-6 (Homo sapiens, UniProt P30084).
T2 sequence (P30084 28-290): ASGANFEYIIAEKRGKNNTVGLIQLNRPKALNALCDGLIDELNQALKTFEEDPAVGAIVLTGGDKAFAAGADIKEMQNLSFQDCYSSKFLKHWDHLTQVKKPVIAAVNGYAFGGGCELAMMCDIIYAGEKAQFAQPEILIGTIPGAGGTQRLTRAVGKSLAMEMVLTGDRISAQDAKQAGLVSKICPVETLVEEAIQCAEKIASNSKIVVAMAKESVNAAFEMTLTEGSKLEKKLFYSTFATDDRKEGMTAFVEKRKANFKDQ
Experimental: as §1, §2, §3, §4, §5, §6, §7, §8, §9, §10, §11, §12, §13, §14, §15, §16, §17, §18, §19, §20, §21, §22, §23, §24, §25, §26, §27, §28

For test [3], the target named is proteins of HEK293T cells transiently overexpressing caspase-6 (Homo sapiens, UniProt O14980). To be noted: Comp; protein XPO1 O14980.
Chain of proteins of HEK293T cells transiently overexpressing caspase-6 (Homo sapiens, UniProt O14980) (O14980 whole entry): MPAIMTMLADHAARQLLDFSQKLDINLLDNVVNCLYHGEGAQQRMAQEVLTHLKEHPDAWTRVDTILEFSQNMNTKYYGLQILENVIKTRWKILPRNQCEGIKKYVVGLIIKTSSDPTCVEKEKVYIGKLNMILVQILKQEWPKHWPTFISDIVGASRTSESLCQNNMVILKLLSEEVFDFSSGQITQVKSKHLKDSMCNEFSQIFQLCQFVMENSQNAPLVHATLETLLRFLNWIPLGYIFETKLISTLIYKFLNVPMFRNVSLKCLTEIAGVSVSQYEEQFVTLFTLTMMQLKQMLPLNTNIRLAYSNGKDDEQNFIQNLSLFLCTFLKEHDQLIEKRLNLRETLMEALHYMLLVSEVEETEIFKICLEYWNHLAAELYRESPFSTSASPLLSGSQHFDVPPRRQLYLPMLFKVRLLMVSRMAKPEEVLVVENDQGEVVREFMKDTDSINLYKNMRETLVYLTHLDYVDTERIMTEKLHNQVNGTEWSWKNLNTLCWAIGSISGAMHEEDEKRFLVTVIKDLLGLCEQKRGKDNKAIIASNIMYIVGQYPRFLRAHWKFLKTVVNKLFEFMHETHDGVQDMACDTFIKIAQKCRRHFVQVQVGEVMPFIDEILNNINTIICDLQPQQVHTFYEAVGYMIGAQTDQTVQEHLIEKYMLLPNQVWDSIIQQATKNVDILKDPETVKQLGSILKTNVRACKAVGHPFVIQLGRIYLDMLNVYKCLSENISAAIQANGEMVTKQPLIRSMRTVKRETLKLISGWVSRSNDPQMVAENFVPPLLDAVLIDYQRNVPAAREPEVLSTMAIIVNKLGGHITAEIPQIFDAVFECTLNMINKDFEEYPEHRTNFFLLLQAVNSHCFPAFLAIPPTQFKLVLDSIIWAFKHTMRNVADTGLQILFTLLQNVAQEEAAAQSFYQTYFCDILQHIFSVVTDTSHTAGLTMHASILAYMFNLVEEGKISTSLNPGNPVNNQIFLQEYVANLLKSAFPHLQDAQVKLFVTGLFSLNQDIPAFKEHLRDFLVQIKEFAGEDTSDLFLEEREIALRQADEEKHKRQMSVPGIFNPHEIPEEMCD
Experimental: as §1, §2, §3, §4, §5, §6, §7, §8, §9, §10, §11, §12, §13, §14, §15, §16, §17, §18, §19, §20, §21, §22, §23, §24, §25, §26, §27, §28
The target in test [4] is proteins of HEK293T cells transiently overexpressing caspase-6 (Homo sapiens, UniProt P62241). To be noted: Comp; protein RPS8 P62241.
Experimental: as §1, §2, §3, §4, §5, §6, §7, §8, §9, §10, §11, §12, §13, §14, §15, §16, §17, §18, §19, §20, §21, §22, §23, §24, §25, §26, §27, §28
The target of test [5] is proteins of HEK293T cells transiently overexpressing caspase-6 (Homo sapiens, UniProt Q07666). To be noted: Comp; protein KHDRBS1 Q07666.
Chain of proteins of HEK293T cells transiently overexpressing caspase-6 (Homo sapiens, UniProt Q07666) (Q07666 whole entry): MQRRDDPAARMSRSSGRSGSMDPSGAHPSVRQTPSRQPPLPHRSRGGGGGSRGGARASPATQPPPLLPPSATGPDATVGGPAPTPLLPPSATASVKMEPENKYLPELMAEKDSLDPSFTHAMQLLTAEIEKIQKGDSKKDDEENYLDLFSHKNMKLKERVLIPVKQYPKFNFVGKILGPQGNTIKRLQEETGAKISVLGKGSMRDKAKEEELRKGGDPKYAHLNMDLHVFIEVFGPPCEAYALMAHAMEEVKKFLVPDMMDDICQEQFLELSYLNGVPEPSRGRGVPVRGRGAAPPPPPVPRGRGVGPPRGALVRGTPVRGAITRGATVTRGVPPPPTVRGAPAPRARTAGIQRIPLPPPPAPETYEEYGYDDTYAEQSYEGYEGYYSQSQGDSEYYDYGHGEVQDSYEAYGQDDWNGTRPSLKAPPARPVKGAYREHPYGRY
Experimental: as §1, §2, §3, §4, §5, §6, §7, §8, §9, §10, §11, §12, §13, §14, §15, §16, §17, §18, §19, §20, §21, §22, §23, §24, §25, §26, §27, §28
Test [6] deals with T3, proteins of HEK293T cells transiently overexpressing caspase-6 (Homo sapiens, UniProt Q9BQG0).
T3 sequence (Q9BQG0 1-1328): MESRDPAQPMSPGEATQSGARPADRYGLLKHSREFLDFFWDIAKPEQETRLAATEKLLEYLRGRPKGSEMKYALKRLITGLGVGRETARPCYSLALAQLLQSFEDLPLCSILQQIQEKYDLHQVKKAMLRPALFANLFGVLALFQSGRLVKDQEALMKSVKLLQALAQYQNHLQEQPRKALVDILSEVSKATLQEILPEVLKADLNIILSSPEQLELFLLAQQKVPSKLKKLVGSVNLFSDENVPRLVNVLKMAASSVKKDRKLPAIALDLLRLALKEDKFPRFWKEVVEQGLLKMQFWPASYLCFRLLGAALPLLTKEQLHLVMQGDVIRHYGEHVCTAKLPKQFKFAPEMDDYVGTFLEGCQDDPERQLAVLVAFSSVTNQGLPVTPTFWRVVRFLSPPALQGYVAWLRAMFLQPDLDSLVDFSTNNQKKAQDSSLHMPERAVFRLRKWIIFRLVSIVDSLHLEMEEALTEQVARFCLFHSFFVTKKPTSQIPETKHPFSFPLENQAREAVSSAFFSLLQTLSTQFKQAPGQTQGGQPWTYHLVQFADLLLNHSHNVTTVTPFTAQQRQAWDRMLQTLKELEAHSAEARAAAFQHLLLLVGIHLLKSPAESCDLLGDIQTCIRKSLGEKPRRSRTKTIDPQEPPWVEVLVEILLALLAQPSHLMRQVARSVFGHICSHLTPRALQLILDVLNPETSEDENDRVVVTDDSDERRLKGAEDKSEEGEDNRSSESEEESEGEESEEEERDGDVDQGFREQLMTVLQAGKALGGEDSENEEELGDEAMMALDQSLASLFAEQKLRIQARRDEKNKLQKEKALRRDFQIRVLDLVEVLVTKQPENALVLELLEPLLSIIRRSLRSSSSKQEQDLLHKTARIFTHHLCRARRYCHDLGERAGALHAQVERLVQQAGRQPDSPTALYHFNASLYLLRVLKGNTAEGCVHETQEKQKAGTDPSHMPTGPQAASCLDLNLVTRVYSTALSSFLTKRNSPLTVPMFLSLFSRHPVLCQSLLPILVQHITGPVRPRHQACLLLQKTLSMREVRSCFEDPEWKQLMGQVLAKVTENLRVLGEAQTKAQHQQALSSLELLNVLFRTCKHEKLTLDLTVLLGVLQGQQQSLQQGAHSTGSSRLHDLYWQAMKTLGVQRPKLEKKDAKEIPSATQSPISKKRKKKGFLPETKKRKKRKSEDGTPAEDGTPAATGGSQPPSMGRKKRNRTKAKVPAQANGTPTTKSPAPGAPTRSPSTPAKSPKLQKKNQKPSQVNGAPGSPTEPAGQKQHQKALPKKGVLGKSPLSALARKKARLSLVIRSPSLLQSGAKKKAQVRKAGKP
To be noted: Comp; protein MYBBP1A Q9BQG0.
Experimental: as §1, §2, §3, §4, §5, §6, §7, §8, §9, §10, §11, §12, §13, §14, §15, §16, §17, §18, §19, §20, §21, §22, §23, §24, §25, §26, §27, §28

For test [7], the target named is proteins of HEK293T cells transiently overexpressing caspase-6 (Homo sapiens, UniProt Q13838). Particulars: Comp; protein DDX39B Q13838.
Chain of proteins of HEK293T cells transiently overexpressing caspase-6 (Homo sapiens, UniProt Q13838) (Q13838 whole entry): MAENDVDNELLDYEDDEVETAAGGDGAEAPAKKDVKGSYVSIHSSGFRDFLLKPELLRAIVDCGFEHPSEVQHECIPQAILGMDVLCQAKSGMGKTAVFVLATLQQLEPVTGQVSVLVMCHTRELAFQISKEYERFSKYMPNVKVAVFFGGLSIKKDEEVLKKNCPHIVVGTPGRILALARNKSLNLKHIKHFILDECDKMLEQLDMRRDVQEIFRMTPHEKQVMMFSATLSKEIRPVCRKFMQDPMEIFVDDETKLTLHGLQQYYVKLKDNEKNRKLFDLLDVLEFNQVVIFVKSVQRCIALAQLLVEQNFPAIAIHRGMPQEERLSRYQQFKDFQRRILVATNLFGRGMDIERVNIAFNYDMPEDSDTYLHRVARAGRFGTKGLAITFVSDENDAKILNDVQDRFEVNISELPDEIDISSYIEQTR
Experimental: as §1, §2, §3, §4, §5, §6, §7, §8, §9, §10, §11, §12, §13, §14, §15, §16, §17, §18, §19, §20, §21, §22, §23, §24, §25, §26, §27, §28
The mark [8] stands for this setting: protein NOP56 (O00567), Exp Comp, analysis C6, p 0.1250, 4 peptides.
Where [9] appears, read: protein ECHS1 (P30084), Exp Comp, analysis C6, p 0.1250, 5 peptides.

Turning to `C=CS(=O)(=O)N1C[C@H](C(=O)Nc2ccc(OC(F)(F)F)cc2)C[C@@H](c2ccccc2)C1` [3a], the enrich.exp.med in test [1] (Comp, protein NOP56 O00567) worked out at 1.117; in test [2] (Comp, protein ECHS1 P30084) it was 2.261; in test [3] it was 0.6797; in test [4] it was 0.6264; in test [5], 0.748; in test [6], 0.8156. In addition, the enrich.exp.med in test [7] was found to be 0.6915. The enrich.exp.med.lin in test [1] (setting [8]) is on record as 2.169; in test [2] (setting [9]) it was 4.794. In addition, the enrich.exp.med.log2 in test [1] (setting [8]) was determined as 1.117; in test [2] (setting [9]) it was 2.261.

Values taken from paper PMC10176470, “Engaging a Non-catalytic Cysteine Residue Drives Potent and Selective Inhibition of Caspase-6” (Journal of the American Chemical Society, 2023).
